Assay results published in article PMC5869189 (Frontiers in Immunology, 2018).

System: PBMC from healthy, seropositive donors
Assay type: cell-based, human

Sequence | % Responders | Median SFC/10^6 PBMCs (IFN-g)
GRQVYEATLCAIFSEAKDRF [BPSS1525_P12] | 84.6% | 201
GVAAAGYANTRDGFAPGHLS [BPSS1599_P6] | 85.4% | 129
GVALVAAAFVGASAVKAVAS [BPSS1532_P45] | 83.9% | 142
HAEQALELRGINKPVLSNDE [BPSS1531_P26] | 85.7% | 219
HFQQLERHLAHQASLRLGQT [BPSS0530_P3] | 83.7% | 253
HQASLRLGQTSNHGWGFTLL [BPSS0530_P4] | 83.7% | 239
IFAFSAAMPAEKLRQLLPQQ [BPSS0530_P36] | 95.3% | 298
IGSDKYNDRLSLRRAQAVKS [BPSL2522_P15] | 97.1% | 290
IQHVSVNNLNVGRSPEEILR [BPSL2096_P15] | 82.4% | 314
IRLRADTLMGAELAARPEYR [BPSS1525_P19] | 82.1% | 197
ITNYFTGLQTVANNAADPSA [BPSL0280_P12] | 82.8% | 557
IVEFAKLAKQFEERDAVLLG [BPSL2096_P7] | 85.3% | 304
KGELIDQLGVRDKEAGVALR [BPSL2096_P12] | 97.1% | 317
KLNHYSFGDVKGELIDQLGV [BPSL2096_P11] | 88.2% | 320
KLTMLAHDAMMSAAAQDRSI [BPSS1531_P19] | 88.6% | 226
KLVDLQLPGARLNALPNPPR [BPSS0530_P39] | 86.0% | 221
KQTLAGSAMALRIVGDFPDL [BPSS0530_P43] | 100.0% | 299
KVYTEGKGKRNPVTGNTCKQ [BPSL2522_P18] | 94.3% | 288
LAGVQVVQSNGNYSVFLSGG [BPSL0280_P22] | 93.1% | 464
LASRYRAVSTEVPDLAVGLD [BPSS0530_P13] | 97.7% | 267
LEGAFYNGRRQPAPNWLGAF [BPSS1599_P9] | 85.4% | 126

Sequence | % Responders | Median SFC/10^6 PBMCs (IFN-g)
LERLHTDYAWGGWNVVIGEP [BPSS1599_P14] | 95.8% | 157
LFDFDKAVLKPAGKQKLDEL [BPSL2522_P11] | 85.7% | 408
LGAMVSRAIALEGAFYNGRR [BPSS1599_P8] | 89.6% | 99
LLLRQAIAEYRMRLANLDAF [BPSS0530_P25] | 81.4% | 244
LLVVEPGATLDTDGERATLD [BPSS1599_P31] | 83.3% | 151
LQTSFEPLAMMLRQALARVI [BPSS0530_P31] | 97.7% | 240
LRIVGDFPDLRFEAWGLRDGKVA [BPSS0530_P44] | 90.7% | 225
LRVERIAYQNNQWTLEGVLY [BPSS1599_P42] | 91.7% | 139
LSPRAALIAATAACVVLGGA [BPSS1599_P20] | 97.9% | 150
MLRQALARVIETPVLPLRFE [BPSS0530_P32] | 95.3% | 316
MSAAAQDRSIGAAQMTAAIA [BPSS1531_P20] | 91.4% | 225
MSAQVIQIGRQRFVGGLFWQ [BPSS1599_P1] | 81.3% | 189
MSSLPVGPVAWSDGMLIETQ [BPSS0530_P1] | 93.0% | 258
NANLGGIAPPEFVRAIDVPG [BPSS1599_P40] | 89.6% | 137
NASRTVSLDPRFIPPLLDTR [BPSS0530_P19] | 97.7% | 334
NLAQQAAALPASPTWRAYRL [BPSS1599_P38] | 89.6% | 125
NNHEENGQSAFETVTEASFP [BPSL2096_P3] | 91.2% | 308
NQWTLEGVLYAK [BPSS1599_P43] | 81.3% | 120
NRRVEIYLRAPQAAQ [BPSL0999_P21] | 93.6% | 348
NSYTSQIAQLNEQIASASSQ [BPSL0280_P18] | 93.1% | 523
NVPSSVTFATDQYAITPAFT [BPSL0999_P11] | 95.7% | 399

Sequence | % Responders | Median SFC/10^6 PBMCs (IFN-g)
PATANAKCDGALVAQAPAPA [BPSL2522_P7] | 82.9% | 265
PEQGPRAPLANLAQQAAALP [BPSS1599_P37] | 93.8% | 147
PLLNDLATTLNQNPQITASV [BPSL0999_P13] | 91.5% | 357
PVAPVAPAITSQKITYQADT [BPSL2522_P9] | 88.6% | 353
QGMGASNPIADNATEAGRAQ [BPSL0999_P19] | 97.9% | 375
QIPYYAQSTYFEVESTDPFW [BPSS0530_P41] | 81.4% | 292
QPAPNWLGAFALPDGRWAYF [BPSS1599_P10] | 95.8% | 189
QPKRLDDLLPRRGGRPRTER [BPSS1599_P17] | 83.3% | 141
QRFVGGLFWQSLSRRNELRA [BPSS1599_P2] | 81.3% | 137
RDGFAPGHLSLGAMVSRAIA [BPSS1599_P7] | 95.8% | 132
RDKEAGVALRATFIVDPDNT [BPSL2096_P13] | 94.1% | 315
RDLAVSKLSQLAGVQVVQSN [BPSL0280_P21] | 93.1% | 493
REPKKQDICYATQNRQDAVK [BPSL0919_P21] | 94.6% | 422
RFIPPLLDTRAHLVLRSLID [BPSS0530_P20] | 90.7% | 248
RLGLRHARGVFQDGTAFSLP [BPSS0530_P7] | 90.7% | 211
RLNALPNPPRQIPYYAQSTY [BPSS0530_P40] | 81.4% | 219
RMRLANLDAFDPLPPAMLYH [BPSS0530_P26] | 88.4% | 240
RQTAMSNAQTLASQLVAAGQ [BPSL0280_P14] | 89.7% | 565
RRGGRPRTERWWALRPVERR [BPSS1599_P18] | 97.9% | 172
RVEVEVVGTQEVQKTTVPAQ [BPSL2522_P23] | 97.1% | 361
RVRAELAARQARSGPVAPPW [BPSS1599_P24] | 87.5% | 119

Sequence | % Responders | Median SFC/10^6 PBMCs (IFN-g)
SALSATDQANATAMVAQINA [BPSL3319_P27] | 86.7% | 259
SAQSVPASRQAVNDNWVNGT [BPSL2522_P3] | 88.6% | 267
SDDPLPPPLETELAQAGDIA [BPSS0530_P9] | 90.7% | 283
SLRRAQAVKSYLVSKGVPAN [BPSL2522_P16] | 82.9% | 317
SLSRRNELRAEAVELAKKLK [BPSS1599_P3] | 89.6% | 156
SNHGWGFTLLDLDQDGLGLG [BPSS0530_P5] | 93.0% | 224
SQKITYQADTLFDFDKAVLK [BPSL2522_P10] | 91.4% | 297
SQVANDNAVAAQVAGNLRT [BPSS1531_P41] | 80.0% | 197
SVLAQEAPARQHRIDMHGMR [BPSS1531_P31] | 88.6% | 182
TAACVVLGGAFAYWHHRAKV [BPSS1599_P21] | 100.0% | 170
TELAQAGDIACLALQAARTG [BPSS0530_P10] | 93.0% | 280
TEQPDGSLKLNVPSSVTFAT [BPSL0999_P10] | 93.6% | 382
TKLGAVEQIQKLVDLQLPGA [BPSS0530_P38] | 90.7% | 305
TPEIRQDAEFGRQVYEATLC [BPSS1525_P11] | 84.6% | 184
TPLADDSVVRTQLLARLQWL [BPSS1599_P34] | 97.9% | 147
TQLLARLQWLDAAAKLERLL [BPSS1599_P35] | 93.8% | 145
VDKQWNLKKLIFAFSAAMPA [BPSS0530_P35] | 90.7% | 243
VGLQAGAQSKAIVFLFMTQD [BPSL1445_P12] | 93.9% | 321
VGTQEVQKTTVPAQ [BPSL2522_P22] | 97.1% | 270
VGYTDSTGSAAHNQTLSQNR [BPSL0999_P15] | 97.9% | 367
VLPGVDEELADRELGYDHDD [BPSS0530_P29] | 93.0% | 234
